{"source": "patent US20040237845A1", "about": "(priority 2002, published 2004)", "assay_type": "physicochemical", "conditions": "kaolin clay slurry, no further addition of acid or chlorine donor", "data": [{"substance": "Sodium Chlorite [stabilized chlorine dioxide]", "values": [{"measurement": "persistence of oxidizing/biocidal effects", "result": "up to 14 days"}]}]}
